Data on one substance can be found in patent US20100099614A1, “Antimicrobial Peptides and Methods of Use” (priority 2008, published 2010).

Data set [1] in a line: Peptide hydrophobicity by RP-HPLC retention. In kind it is physicochemical. As to conditions: 80° C., polar face substitution. The protocol: Peptide Synthesis and Purification—Syntheses of the peptides were carried out by solid-phase peptide synthesis using t-butyloxycarbonyl chemistry and MBHA (4-methylbenzhydrylamine) resin (0.97 mmol/g), followed by cleavage of the peptide from the resin as described previously (117-119). However, it is understood in the art that there are other suitable instruments and methods for automated or manual peptide synthesis that could be employed to produce the peptides described herein. Peptide purification was performed by reversed-phase high-performance liquid chromatography (RP-HPLC) on a Zorbax 300 SB-C8 column (250×9.4 mm I.D.; 6.5 μm particle size, 300 Å pore size; Agilent Technologies, Little Falls, Del.) with a linear AB gradient (0.1% acetonitrile/min) at a flow rate of 2 mL/min, where eluent A was 0.2% aqueous trifluoroacetic acid (TFA), pH 2, and eluent B was 0.2% TFA in acetonitrile, where the shallow 0.1% acetonitrile/min gradient started 12% below the acetonitrile concentration required to elute the peptide on injection of analytical sample using a gradient of 1% acetonitrile/min (113). The purity of the peptides was verified by analytical RP-HPLC as described below and further characterized by mass spectrometry and amino acid analysis. Crude and purified peptides were analyzed on an Agilent 1100 series liquid chromatograph. Runs were performed on a Zorbax 300 SB-C8 column (150×2.1 mm I.D.; 5 μm particle size, 300 Å pore size) from Agilent Technologies using a linear AB gradient (1% acetonitrile/min) and a flow rate of 0.25 mL/min, where eluent A was 0.2% aqueous TFA, pH 2, and eluent B was 0.2% TFA in acetonitrile.
Analytical RP-HPLC of Peptides—Peptides were analyzed on an Agilent 1100 series liquid chromatograph (Little Falls, Del.). Runs were performed on a Zorbax 300 SB-C8 column (150×2.1 mm I.D.; 5 μm particle size, 300 Å pore size) from Agilent Technologies using linear AB gradient (1% acetonitrile/min) and a flow rate of 0.25 ml/min, where solvent A was 0.05% aqueous TFA, pH 2 and solvent B was 0.05% TFA in acetonitrile. Temperature profiling analyses were performed in 3° C. increments, from 5° C. to 80° C.

Data set [2] in a line: Helical structure by circular dichroism spectroscopy. In kind it is physicochemical. Here is the method:
The mean residue molar ellipticities of peptides were determined by circular dichroism (CD) spectroscopy, using a Jasco J-810 spectropolarimeter (Easton, Md.) at 5° C. under benign (non-denaturing) conditions (50 mM NaH2PO4/Na2HPO4/100 mM KCl, pH 7.0), hereafter referred to as benign buffer, as well as in the presence of an α-helix inducing solvent, 2,2,2-trifluoroethanol, TFE, (50 mM NaH2PO4/Na2HPO4/[…], pH 7.0 buffer/50% TFE). A 10-fold dilution of an approximately […] stock solution of the peptide analogs was loaded into a 0.1 cm quartz cell and its ellipticity scanned from 195 to 250 nm. The values of molar ellipticities of the peptide analogs at a wavelength of 222 nm were used to estimate the relative α-helicity of the peptides.
On the technique in general: CD spectra are sensitive to the conformation of chiral molecules.

Data set [3] in a line: CD temperature denaturation study. In kind it is physicochemical. Conditions: 50% TFE. Here is the method: CD Temperature Denaturation Study of Peptide V681—The native peptide V681 was dissolved in 0.05% aqueous TFA containing 50% TFE, pH 2, loaded into a 0.02 cm fused silica cell and peptide ellipticity scanned from 190 to 250 nm at temperatures of 5, 15, 25, 35, 45, 55, 65 and 80° C. The spectra at different temperatures were used to mimic the alteration of peptide conformation during temperature profiling analysis in RP-HPLC. The ratio of the molar ellipticity at a particular temperature (t) relative to that at 5° C. ([θ]t−[θ]u)/([θ]5−[θ]u) was calculated and plotted against temperature in order to obtain the thermal melting profiles, where [θ]5 and [θ]u represent the molar ellipticity values for the fully folded and fully unfolded species, respectively. […] was determined in the presence of 8M urea with a value of 1500 deg·cm^2·dmol^−1 to represent a totally random coil state (31). The melting temperature (Tm) was calculated as the temperature at which the α-helix was 50% denatured (([θ]t−[θ]u)/([θ]5−θ[θ]u)=0.5) and the values were taken as a measure of α-helix stability.

The test system of another data set is Gram-positive bacteria. Conditions: gram-positive bacteria.

“Ac-KWKSFLKTFKSAVKTVLHTALKAISS-NH2 [V681, reference compound]”: the “change in hydrophobicity (RP-HPLC retention) relative to PVL” value in data set [1] is -0.35 min. Moreover, in data set [2] (100 mM KCl, 50 mM aq. PO4, pH 7), the “[θ]222 in benign conditions” value is on record as −12,900. For the same substance, in data set [2] (50% TFE), the “[θ]222 in 50% TFE” value is −27,300 and the α-helical content is 94%. In data set [2] (benign conditions), the α-helical content is reported as 45%. The “transition temperature Tm (50% of α-helical structure denatured)” value in data set [3] came to 79.3 °C. For the same substance, the “geometric mean MIC” value in the data set on Gram-positive bacteria amounted to 6.3 µg/mL.
